Legend:
HIV-1LAI [1] = test: MT-2 cells, MTT assay; format: cell-based; conditions: HIV-1LAI; MT-2/MTT, day 7
Protocol: All drug sensitivities were performed in triplicate. […] The IC50's were determined using the MTT assay on day 7 of culture. All sensitivities were determined in […].

HIV-1BAL = test: PHA-PBMC assay, p24 Gag protein production; format: cell-based; conditions: HIV-1Ba-L; PBMC/p24, day 7 (Table 8)
HIV-1LAI [2] = test: PHA-PBMC assay, p24 Gag protein production; format: cell-based; conditions: HIV-1LAI; PBMC/p24, day 7 (Table 8)
[3] = target: T1, wild-type HIV-1 (WT) protease (Human immunodeficiency virus type 1 group M subtype B, UniProt P04585); test: continuous fluorogenic HIV protease assay; format: biochemical; conditions: WT (Table 7)
T1 construct: the proteases of wild-type HIV-1 (WT)
Protocol: (§1) This example describes the protocol for the sensitive continuous fluorogenic assay for HIV protease of the present invention and its application. […] The inhibition constant for wild-type HIV-1, Kimnt/Kiwt ratio, and vitality were measured.
(§2) The reaction was initiated by the addition of 5 μl of substrate stock solution in water. […] The initial rate of hydrolysis was calculated by second degree polynomial fit using SLM AB2 2.0 operating software.
(§3) For inhibition studies, inhibitors were prepared as stock solutions at different concentrations in dimethylsulfoxide. […] The reaction was initiated by the addition of 5 μl of substrate stock solution in water. For data analysis, the mathematical model for tight-binding inhibitors was used.

HIV-1 protease V82F/I84V [4] = test: continuous fluorogenic HIV protease assay; format: biochemical
Protocol: as §1, §2, §3

HIV-1 protease V82F/I84V [5] = target: T2, HIV-1 protease V82F/I84V (Human immunodeficiency virus type 1 group M subtype B, UniProt P04585, I572V/V570F); test: continuous fluorogenic HIV protease assay; format: biochemical; conditions: V82F/I84V (Table 7)
T2 construct: the proteases of wild-type HIV-1 (WT) and various mutant enzymes
Protocol: as §1, §2, §3

HIV-1 protease G48V/V82A = target: T3, HIV-1 protease G48V/V82A (Human immunodeficiency virus type 1 group M subtype B, UniProt P04585, G536V/V570A); test: continuous fluorogenic HIV protease assay; format: biochemical
T3 construct: proteases containing the deleterious drug resistance associated mutations V82F/I84V and G48V/V82A
Protocol: This example describes the protocol for the sensitive continuous fluorogenic assay for HIV protease of the present invention and its application. […] 21702-1201, upon written request. The inhibition constant for wild-type HIV-1, Kimnt/Kiwt ratio, and vitality were measured. (See Gulnik et al., Biochemistry, 34, 9282-9287 (1995). Protease activity was measured using the fluorgenic substrate Lys-Ala-Arg-Val-Tyr-Phe(NO2)-Glu-Ala-Nle-NH2 (Bachem Bioscience, Inc.). (See Peranteau et al., D.H. (1995) Anal. Biochem.).
The reaction was initiated by the addition of 5 μl of substrate stock solution in water. Increase in fluorescence intensity at the emission maximum of 306 nm (excitation wavelength was 277 nm) was monitored as a function of time using Aminco Bowman-2 luminescence spectrometer (SLM Instruments, Inc.). The initial rate of hydrolysis was calculated by second degree polynomial fit using SLM AB2 2.0 operating software.
as §3, with “used. (See Williams and Morrison (1979), In: Methods of Enzymol. 63, (ed. D. L. Purich), 437-467, Academic Press, NY, London). […]” for “used.”
This example describes the inhibitory activity of compounds 35 (FIG. 5A), 36 (FIG. 5B), 37 (FIG. 5C) and 38 (FIG. 5D). In accordance with the technique disclosed in Example 13 above, the inhibitory activity of these compounds was tested against proteases of the wild-type HIV-1. Compound 36, 37 and 38 were also tested against proteases containing the deleterious drug resistance associated mutations V82F/I84V and G48V/V82A. Fitness was determined in accordance with Example 13.

**Q.** With `CC(C)CN(C[C@@H](O)[C@H](Cc1ccccc1)NC(=O)O[C@H]1CO[C@H]2OCC[C@H]21)S(=O)(=O)c1ccc(CO)cc1` [Compound 37] as the compound, how does the IC50 (HIV-1LAI [1]) read?
**A.** 5.3 nM

**Q.** And the IC50 (HIV-1BAL)?
**A.** 3 nM

**Q.** What about the IC50 (HIV-1LAI [2]) of the same compound?
**A.** 2.7 nM

**Q.** What about the KI-wt/KI-mut [3] of the same compound?
**A.** 1

**Q.** And the Ki [3]?
**A.** 0.012 nM

**Q.** And the KI-wt/KI-mut (HIV-1 protease V82F/I84V [4]; V82F/I84V (Table 7))?
**A.** 2.1

**Q.** And the Fitness (HIV-1 protease V82F/I84V [4]; V82F/I84V relative to WT (Table 7))?
**A.** 0.3

**Q.** What about the Ki (HIV-1 protease V82F/I84V [5]) of the same compound?
**A.** 0.0257 nM

**Q.** And the KI-wt/KI-mut (HIV-1 protease G48V/V82A; G48V/V82A)?
**A.** 5.3

**Q.** And the Ki (HIV-1 protease G48V/V82A; G48V/V82A)?
**A.** 0.064 nM

**Q.** And the Fitness (HIV-1 protease G48V/V82A; G48V/V82A relative to WT)?
**A.** 1.4

From patent US9889115B2, “Fitness assay and associated methods” (priority 1998, dated 2018)
